Results: patent publication US6589943B2, “Formulation of amphiphilic heparin derivatives for enhancing mucosal absorption” (Mediplex Corporation, Korea, priority 2001, dated 2003)

Key:
[1] = zeta potential of particles in sodium bicarbonate buffer; assay type: physicochemical
Experimental: Surface Charges of Heparin-DOCA Particle. Zeta potentials of heparin-DOCA particles in sodium bicarbonate buffer were measured according to procedures well known in the art. The negative potential of heparin-DOCA conjugate particles was decreased by mixing with free DOCA. This was due to the fact that the DOCA moiety coupled to heparin could be exposed on the surface of heparin-DOCA conjugate particles by mixing with free DOCA.

[2] = background, literature; cited from earlier work

| Compound | Zeta Potential [1] | absorption in the GI tract [2] |
| --- | --- | --- |
| C[C@H](CCC(=O)O)[C@H]1CC[C@H]2[C@@H]3CC[C@@H]4C[C@H](O)CC[C@]4(C)[C@H]3C[C@H](O)[C@]12C [Bile Acid, deoxycholic acid] | −22.3 ± 11.4 mv | – |
| heparin | – | not absorbed in the GI tract |
